{
  "source": "patent US20250195463A1",
  "about": "“ORGANOMETALLIC COMPLEX, CONTROLLED-RELEASE MULTI-FUNCTIONAL DRUG, PHARMACEUTICAL COMPOSITION, PROCESSES FOR THE PREPARATION THEREOF AND THEIR USE” (FACULDADE DE CIÊNCIAS DA UNIVERSIDADE DE LISBOA, priority 2022, published 2025)",
  "key": {"[1]": {"assay": "Stability in organic medium (dimethyl sulfoxide) by UV-Vis spectroscopy", "type": "physicochemical", "conditions": "for Relative variation of the maximum absorbance of the π→π* transitions: band 289-300 nm (λmax in column head); for Relative variation of the maximum absorbance of the charge transfer bands: band 357-425 nm (λmax in column head)", "in_short": "(§1)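 UV-Vis spectra (270-900 nm) were recorded at intervals from 0 to 24 h, at room temperature in the dark. Solvents were 100% DMSO, or 5% or 10% DMSO in DMEM depending on complex, at 7.0×10^-5 M to 3.0×10^-4 M.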"}, "[2]": {"assay": "Stability in aqueous medium (dimethyl sulfoxide/Dulbecco's Modified Eagle Medium) by UV-Vis spectroscopy", "type": "physicochemical", "conditions": "5% dimethyl sulfoxide/95% Dulbecco's Modified Eagle Medium; for Relative variation of the maximum absorbance of the π→π* transitions: band 292-296 nm (λmax in column head); for Relative variation of the maximum absorbance of the charge transfer bands: band 358-400 nm (λmax in column head)", "in_short": "as §1"}, "[3]": {"system": "MDA-MB-231 (FGFR−)", "assay": "MTT cytotoxicity assay", "conditions": "MDA-MB-231", "method": "By way of example, the in vitro cytotoxicity of the conjugate RuPC1, complex 4 and peptide P2 was determined in four human breast cancer cell lines with different levels of expression of the receptor FGFR, namely MDA-MB-231 (FGFR−), MCF-7 (FGFR−), SK-BR-3 (FGFR+), and MDA-MB-134-VI (FGFR+). The cytotoxicity of RuPC1 was also determined in the stated cell lines at controlled pH 6.8 and 7.4. The cytotoxicity of the complexes 5, 8, 9, and the reference complex (2,2′-bipyridyl)(triphenylphosphane)(f-cyclopentadienyl)ruthenium(II) trifluoromethanesulfonate, [RuCp(PPh3)(bipy)][CF3SO3] (TM34) was only determined in the cell line MDA-MB-231. All the cell lines were from the American Type Culture Collection (ATCC) and were cultured in Dulbecco's Modified Eagle Medium+Glutamax-I (Gibco) supplemented with 10% fetal bovine serum (FBS) and 1% antibiotics, excepting the MDA-MB-134-VI for which it was used the double amount of FBS. The cell cultures were kept in an incubator Heraeus at 37° C. under humidified atmosphere at 5% CO2. The cell viability was evaluated resorting to the MTT ([3-(4,5-dimethylthiazol-2-yl)-2,5-diphenyltetrazolium bromide]) colorimetric assay, which is based on the reduction of the tetrazolium salt to purple formazan by mitochondrial dehydrogenases in metabolically active cells. For the assays, the cells were seeded in 96-well plates (2×10^4 to 3×10^4 cells/200 μL) and allowed to adhere overnight. The compounds were first dissolved in dimethyl sulfoxide to obtain 10 mM stock solutions, further used to prepare the working solutions, at 0.1 to 100 μM, by dilution in the cell culture medium. Alternatively, for the assays at controlled pH 6.8 and 7.4, RuPC1 was first dissolved in a solution of 15% dimethyl sulfoxide/85% phosphate buffer (10 mM in water) to obtain 1.5 mM stock solutions further incubated for 48 hours at both pH values prior to be used to prepare the working solutions, at 0.1 to 50 μM, by dilution in the cell culture medium. In both cases, after continuous exposure of the cells to the compounds for 48 h at 37° C., the medium was removed and the cells were incubated with 200 μL of MTT solution (0.5 mg/mL) for 3 h. Then, the solution was discarded and the purple formazan formed by the viable cells was dissolved in 200 μL of dimethyl sulfoxide. The cell viability (%) was determined relative to the control (cells incubated without compounds) by measuring the absorbance at 570 nm on a PowerWave Xs Bio-Tek Instruments plate spectrophotometer. The respective values of the half maximal inhibitory concentration (IC50) were calculated with the software GraphPad Prism. All the compounds were tested in at least two independent experiments, each comprising six replicates per concentration."}},
  "data": [
    {"smiles": "CC(=O)C1=C[CH]([Ru-]2([PH](c3ccccc3)(c3ccccc3)c3ccccc3)[n+]3ccccc3-c3cccc[n+]32)C=C1.O=S(=O)([O-])C(F)(F)F", "note": "(stereo not shown) [compound 5]", "values": [
      {"measurement": "Relative variation of the maximum absorbance of the π→π* transitions", "setting": "[1]; time 0 h", "value": 0.0, "unit": "%"},
      {"measurement": "Relative variation of the maximum absorbance of the charge transfer bands", "setting": "[1]; time 0 h", "value": 0.0, "unit": "%"},
      {"measurement": "Relative variation of the maximum absorbance of the π→π* transitions", "setting": "[1]; time 0.25 h", "value": 0.3, "unit": "%"},
      {"measurement": "Relative variation of the maximum absorbance of the charge transfer bands", "setting": "[1]; time 0.25 h", "value": 0.1, "unit": "%"},
      {"measurement": "Relative variation of the maximum absorbance of the π→π* transitions", "setting": "[1]; time 0.5 h", "value": "−0.5", "unit": "%"},
      {"measurement": "Relative variation of the maximum absorbance of the charge transfer bands", "setting": "[1]; time 0.5 h", "value": 0.0, "unit": "%"},
      {"measurement": "Relative variation of the maximum absorbance of the π→π* transitions", "setting": "[1]; time 0.75 h", "value": "−0.4", "unit": "%"},
      {"measurement": "Relative variation of the maximum absorbance of the charge transfer bands", "setting": "[1]; time 0.75 h", "value": 0.2, "unit": "%"},
      {"measurement": "Relative variation of the maximum absorbance of the π→π* transitions", "setting": "[1]; time 1 h", "value": "−0.3", "unit": "%"},
      {"measurement": "Relative variation of the maximum absorbance of the charge transfer bands", "setting": "[1]; time 1 h", "value": 0.1, "unit": "%"},
      {"measurement": "Relative variation of the maximum absorbance of the π→π* transitions", "setting": "[1]; time 2 h", "value": "−0.9", "unit": "%"},
      {"measurement": "Relative variation of the maximum absorbance of the charge transfer bands", "setting": "[1]; time 2 h", "value": 0.3, "unit": "%"},
      {"measurement": "Relative variation of the maximum absorbance of the π→π* transitions", "setting": "[1]; time 3 h", "value": "−1.2", "unit": "%"},
      {"measurement": "Relative variation of the maximum absorbance of the charge transfer bands", "setting": "[1]; time 3 h", "value": 0.3, "unit": "%"},
      {"measurement": "Relative variation of the maximum absorbance of the π→π* transitions", "setting": "[1]; time 4 h", "value": "−1.2", "unit": "%"},
      {"measurement": "Relative variation of the maximum absorbance of the charge transfer bands", "setting": "[1]; time 4 h", "value": 0.3, "unit": "%"},
      {"measurement": "Relative variation of the maximum absorbance of the π→π* transitions", "setting": "[1]; time 5 h", "value": "−1.5", "unit": "%"},
      {"measurement": "Relative variation of the maximum absorbance of the charge transfer bands", "setting": "[1]; time 5 h", "value": 0.5, "unit": "%"},
      {"measurement": "Relative variation of the maximum absorbance of the π→π* transitions", "setting": "[1]; time 6 h", "value": "−1.5", "unit": "%"},
      {"measurement": "Relative variation of the maximum absorbance of the charge transfer bands", "setting": "[1]; time 6 h", "value": 0.2, "unit": "%"},
      {"measurement": "Relative variation of the maximum absorbance of the π→π* transitions", "setting": "[1]; time 24 h", "value": "−1.9", "unit": "%"},
      {"measurement": "Relative variation of the maximum absorbance of the charge transfer bands", "setting": "[1]; time 24 h", "value": 0.3, "unit": "%"},
      {"measurement": "Relative variation of the maximum absorbance of the π→π* transitions", "setting": "[2]; time 0 h", "value": 0.0, "unit": "%"},
      {"measurement": "Relative variation of the maximum absorbance of the charge transfer bands", "setting": "[2]; time 0 h", "value": 0.0, "unit": "%"},
      {"measurement": "Relative variation of the maximum absorbance of the π→π* transitions", "setting": "[2]; time 0.25 h", "value": 0.6, "unit": "%"},
      {"measurement": "Relative variation of the maximum absorbance of the charge transfer bands", "setting": "[2]; time 0.25 h", "value": "−1.0", "unit": "%"},
      {"measurement": "Relative variation of the maximum absorbance of the π→π* transitions", "setting": "[2]; time 0.5 h", "value": "−0.1", "unit": "%"},
      {"measurement": "Relative variation of the maximum absorbance of the charge transfer bands", "setting": "[2]; time 0.5 h", "value": "−2.1", "unit": "%"},
      {"measurement": "Relative variation of the maximum absorbance of the π→π* transitions", "setting": "[2]; time 0.75 h", "value": 0.3, "unit": "%"},
      {"measurement": "Relative variation of the maximum absorbance of the charge transfer bands", "setting": "[2]; time 0.75 h", "value": "−2.7", "unit": "%"},
      {"measurement": "Relative variation of the maximum absorbance of the π→π* transitions", "setting": "[2]; time 1 h", "value": 0.0, "unit": "%"},
      {"measurement": "Relative variation of the maximum absorbance of the charge transfer bands", "setting": "[2]; time 1 h", "value": "−3.4", "unit": "%"},
      {"measurement": "Relative variation of the maximum absorbance of the π→π* transitions", "setting": "[2]; time 2 h", "value": 1.0, "unit": "%"},
      {"measurement": "Relative variation of the maximum absorbance of the charge transfer bands", "setting": "[2]; time 2 h", "value": "−1.2", "unit": "%"},
      {"measurement": "Relative variation of the maximum absorbance of the π→π* transitions", "setting": "[2]; time 3 h", "value": 0.7, "unit": "%"},
      {"measurement": "Relative variation of the maximum absorbance of the charge transfer bands", "setting": "[2]; time 3 h", "value": "−3.4", "unit": "%"},
      {"measurement": "Relative variation of the maximum absorbance of the π→π* transitions", "setting": "[2]; time 4 h", "value": 0.7, "unit": "%"},
      {"measurement": "Relative variation of the maximum absorbance of the charge transfer bands", "setting": "[2]; time 4 h", "value": "−4.1", "unit": "%"},
      {"measurement": "Relative variation of the maximum absorbance of the π→π* transitions", "setting": "[2]; time 5 h", "value": 0.7, "unit": "%"},
      {"measurement": "Relative variation of the maximum absorbance of the charge transfer bands", "setting": "[2]; time 5 h", "value": "−5.1", "unit": "%"},
      {"measurement": "Relative variation of the maximum absorbance of the π→π* transitions", "setting": "[2]; time 6 h", "value": 2.1, "unit": "%"},
      {"measurement": "Relative variation of the maximum absorbance of the charge transfer bands", "setting": "[2]; time 6 h", "value": 0.3, "unit": "%"},
      {"measurement": "Relative variation of the maximum absorbance of the π→π* transitions", "setting": "[2]; time 24 h", "value": "−1.8", "unit": "%"},
      {"measurement": "Relative variation of the maximum absorbance of the charge transfer bands", "setting": "[2]; time 24 h", "value": "−3.0", "unit": "%"},
      {"measurement": "IC50 range in words", "setting": "[3]; Example 24", "value": "sub-micromolar range"},
      {"measurement": "IC50", "setting": "[3]; read-out: Cytotoxic activity expressed as IC50, Table 5, 48 h, 37° C.", "value": 360, "unit": "nM"}
    ]}
  ]
}
